The record followed here is ChEMBL document CHEMBL3526079, “Glutaredoxin is involved in the formation of the pharmacologically active metabolite of clopidogrel from its GSH conjugate” (Drug Metab Dispos, 2012).

One may read the Km as the concentration of substrate that gives half-maximal velocity. Broadly, the Vmax is the top rate of the reaction or transport when substrate is in excess.

The test system of data set [1] is Liver cytosol. Put plainly: Drug metabolism in human liver cytosol assessed as (E)-2-(1-((S)-1-(2-chlorophenyl)-2-methoxy-2-oxoethyl)-4-mercaptopiperidin-3-ylidene)acetic acid formation at 1 uM for 2.5 mins by LC-MS/MS analysis in presence of 5 mM GSH and 19 to 300 ug/ml anti-human glutaredoxin antibody. It counts as ADME.
Data set [2] in a line: Activity of human recombinant glutaredoxin assessed as enzyme-mediated (E)-2-(1-((S)-1-(2-chlorophenyl)-2-methoxy-2-oxoethyl)-4-mercaptopiperidin-3-ylidene)acetic acid formation at 1 uM for 2.5 mins by LC-MS/MS analysis in presence of 5 mM GSH and 19 to 300 ug/ml anti-human glutaredoxin antibody. It counts as ADME.
Data set [3] can be described thus: Activity of human recombinant glutaredoxin assessed as enzyme-mediated (E)-2-(1-((S)-1-(2-chlorophenyl)-2-methoxy-2-oxoethyl)-4-mercaptopiperidin-3-ylidene)acetic acid formation. It counts as ADME.
Data set [4] can be described thus: Activity of human recombinant glutaredoxin assessed as enzyme-mediated (E)-2-(1-((S)-1-(2-chlorophenyl)-2-methoxy-2-oxoethyl)-4-mercaptopiperidin-3-ylidene)acetic acid formation per ug of protein. It counts as ADME.
Data set [5] is described as follows: Activity of human recombinant glutaredoxin assessed as intrinsic clearance of enzyme-mediated (E)-2-(1-((S)-1-(2-chlorophenyl)-2-methoxy-2-oxoethyl)-4-mercaptopiperidin-3-ylidene)acetic acid formation per ug of protein. It counts as ADME.
A short description of data set [6]: Activity of human recombinant glutaredoxin assessed as intrinsic clearance of enzyme-mediated (E)-2-(1-((S)-1-(2-chlorophenyl)-2-methoxy-2-oxoethyl)-4-mercaptopiperidin-3-ylidene)acetic acid formation per pmol of protein. It counts as ADME.
Data set [7] relates to Liver microsome. Put plainly: Drug level in human liver microsome assessed as compound formation treated with R-115991 at 5 uM by LC-MS/MS analysis in presence of 5 mM GSH. The note with it: microsomes. It counts as ADME. (Liver microsomes are vesicles of endoplasmic reticulum, rich in cytochrome P450 enzymes.)
In data set [8] the test system is Liver microsome. In words: Drug metabolism in human liver microsome assessed as (E)-2-(1-((S)-1-(2-chlorophenyl)-2-methoxy-2-oxoethyl)-4-mercaptopiperidin-3-ylidene)acetic acid formation at 1 uM for 2.5 mins by LC-MS/MS analysis in presence of 5 mM GSH and 19 to 300 ug/ml anti-human glutaredoxin antibody. It counts as ADME. The note with it: microsomes.
The test system of data set [9] is Liver microsome. In words: Drug level in human liver microsome assessed as compound formation rate measured per mg of protein treated with 1 uM R-361015-SG for 2.5 mins by LC-MS/MS analysis in presence of 5 mM GSH. It counts as ADME. The note with it: microsomes.
Data set [10] has as its system Liver cytosol. In words: Drug level in human liver cytosol assessed as compound formation rate measured per mg of protein treated with 1 uM R-361015-SG for 2.5 mins by LC-MS/MS analysis in presence of 5 mM GSH. It counts as ADME, tissue-based.
Data set [11] is described as follows: Activity of human recombinant glutaredoxin assessed as enzyme-mediated compound formation rate measured per ug of enzyme at 1 uM for 2.5 mins by LC-MS/MS analysis in presence of 5 mM GSH. It counts as ADME.
Data set [12] concerns Liver microsome. In words: Drug metabolism in human liver microsome assessed as (2S)-2-amino-5-((2R)-1-(carboxymethylamino)-3-(((E)-3-(carboxymethylene)-1-((S)-1-(2-chlorophenyl)-2-methoxy-2-oxoethyl)piperidin-4-yl)disulfanyl)-1-oxopropan-2-ylamino)-5-oxopentanoic acid formation at 5 uM by LC-MS/MS analysis in presence of 5 mM GSH. It counts as ADME. The note with it: microsomes.

Data set [13] has as its system Liver microsome. Put plainly: Drug metabolism in human liver microsome assessed as (E)-2-(1-((S)-1-(2-chlorophenyl)-2-methoxy-2-oxoethyl)-4-mercaptopiperidin-3-ylidene)acetic acid formation at 5 uM by LC-MS/MS analysis in presence of 5 mM GSH. As to conditions: microsomes. It counts as ADME.
For data set [14], the system named is Liver microsome. Put plainly: Drug metabolism in human liver microsome assessed as (2S)-2-amino-5-((2R)-1-(carboxymethylamino)-3-(((E)-3-(carboxymethylene)-1-((S)-1-(2-chlorophenyl)-2-methoxy-2-oxoethyl)piperidin-4-yl)disulfanyl)-1-oxopropan-2-ylamino)-5-oxopentanoic acid formation at 5 uM by LC-MS/MS analysis in presence of 5 mM GSH and 1 mg/ml human liver cytosol. It counts as ADME. The note with it: microsomes.

As to `COC(=O)[C@H](c1ccccc1Cl)N1CCC(SSC[C@H](NC(=O)CC[C@H](N)C(=O)O)C(=O)NCC(=O)O)/C(=C/C(=O)O)C1` (stereo not given in full), the Drug metabolism entry is given as “metabolite_not_detected” with Liver cytosol [1], “metabolite_not_detected” in [2], “metabolite_detected” in the data set with Liver microsome [7] and “metabolite_not_detected” in the data set with Liver microsome [8]. In addition, the Michaelis-Menten constant (Km) in [3] amounted to 30 µM. For the same molecule, in [4], the maximal velocity (Vmax) came out at 381.6 pmol/min. The clearance in data set [5] was found to be 12.9 µL/min/µg. In addition, in data set [6], the CL was 0.1548 µL/min.
As to `COC(=O)[C@H](c1ccccc1Cl)N1CCC(S)/C(=C/C(=O)O)C1` (stereo not given in full), the Drug metabolism result is reported as “metabolite_detected” with Liver microsome [7], 508 pmol/min with Liver microsome [9], 2843 pmol/min in the data set on Liver cytosol [10] and 130 pmol/min in data set [11].
On to `COC(=O)[C@H](c1ccccc1Cl)N1CCC2SC(=O)C=C2C1` (stereo not given in full) [CLOPIDOGREL THIOLACTONE], for which the Drug metabolism result with Liver microsome [12] is on record as “metabolite_detected”; in the data set with Liver microsome [13] it was “metabolite_detected”; with Liver microsome [14] it was “metabolite_not_detected”.
